Results taken from article PMC5567048, “A novel c-di-GMP binding domain in glycosyltransferase BgsA is responsible for the synthesis of a mixed-linkage β-glucan” (Scientific Reports, 2017).
Positions count from the first letter of the chain named. Blank lines part the entries; values can stand above or below the molecule they belong to.

Experiments:
C-BgsA [1] = molecular target: T1, C-BgsA (Sinorhizobium meliloti, UniProt Q92WG2, G635R); test: SPR direct binding, immobilised ligand
T1 construct: gene SM_b20391
T1 sequence (Q92WG2 526-664 G635R): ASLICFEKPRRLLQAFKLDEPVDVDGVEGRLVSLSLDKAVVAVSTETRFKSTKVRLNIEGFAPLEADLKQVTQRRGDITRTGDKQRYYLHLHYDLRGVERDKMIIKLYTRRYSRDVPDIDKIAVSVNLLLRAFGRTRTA

C-BgsA [2] = molecular target: T2, C-BgsA (Sinorhizobium meliloti, UniProt Q92WG2); test: SPR direct binding, immobilised ligand
T2 construct: gene SM_b20391
T2 sequence (Q92WG2 526-664): T1 sequence (Q92WG2 526-664 G635R) with R110G

C-BgsA [3] = molecular target: T3, C-BgsA (Sinorhizobium meliloti, UniProt Q92WG2, G635V); test: SPR direct binding, immobilised ligand
T3 construct: gene SM_b20391
T3 sequence (Q92WG2 526-664 G635V): T1 sequence (Q92WG2 526-664 G635R) with R110V

C-BgsA [4] = molecular target: T2, C-BgsA; test: SPR solution competition against immobilised […]′-AHC-c-di-GMP chip; type: binding; conditions: weak competitor; c-di-GMP at the same concentration gave 98%; 20 mM MOPS pH 8.0, 300 mM NaCl, 25 °C
C-BgsA [5] = molecular target: T4, C-BgsA (Sinorhizobium meliloti, UniProt Q92WG2, D608A); test: as above; type: binding
T4 construct: gene SM_b20391
T4 sequence (Q92WG2 entry or part of it D608A): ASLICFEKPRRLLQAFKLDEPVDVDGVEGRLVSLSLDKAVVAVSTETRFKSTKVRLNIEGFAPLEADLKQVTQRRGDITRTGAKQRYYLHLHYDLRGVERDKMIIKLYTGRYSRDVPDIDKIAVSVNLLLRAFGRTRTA

C-BgsA [6] = molecular target: T5, C-BgsA (Sinorhizobium meliloti, UniProt Q92WG2, R605A); test: as above; type: binding
T5 construct: gene SM_b20391
T5 sequence (Q92WG2 entry or part of it R605A): as the sequence (Q92WG2 entry or part of it D608A) above, with R80A, A83D counted along it

C-BgsA [7] = molecular target: T6, C-BgsA (Sinorhizobium meliloti, UniProt Q92WG2, R599A); test: as above; type: binding
T6 construct: gene SM_b20391
T6 sequence (Q92WG2 entry or part of it R599A): as the sequence (Q92WG2 entry or part of it D608A) above, with R74A, A83D counted along it

C-BgsA [8] = molecular target: T7, C-BgsA (Sinorhizobium meliloti, UniProt Q92WG2, R656A); test: as above; type: binding
T7 construct: gene SM_b20391
T7 sequence (Q92WG2 entry or part of it R656A): as the sequence (Q92WG2 entry or part of it D608A) above, with A83D, R131A counted along it

C-BgsA [9] = molecular target: T2, C-BgsA; test: as above; type: binding
C-BgsA [10] = molecular target: T8, C-BgsA (Sinorhizobium meliloti, UniProt Q92WG2, H615A); test: as above; type: binding
T8 construct: gene SM_b20391
T8 sequence (Q92WG2 entry or part of it H615A): as the sequence (Q92WG2 entry or part of it D608A) above, with A83D, H90A counted along it

C-BgsA [11] = molecular target: T9, C-BgsA (Sinorhizobium meliloti, UniProt Q92WG2, Y633A); test: as above; type: binding
T9 construct: gene SM_b20391
T9 sequence (Q92WG2 entry or part of it Y633A): as the sequence (Q92WG2 entry or part of it D608A) above, with A83D, Y108A counted along it

SMILES: NCCCCCCNC(=O)O[C@@H]1[C@@H]2OP(=O)(O)OC[C@H]3O[C@@H](n4cnc5c(=O)[nH]c(N)nc54)[C@H](O)[C@@H]3OP(=O)(O)OC[C@H]2O[C@H]1n1cnc2c(=O)[nH]c(N)nc21 [2′-AHC-c-di-GMP]
- Kd (C-BgsA [1]): 190 nM
- Kd (C-BgsA [2]): 230 nM
- Kd (C-BgsA [3]): 140 nM

- % reduction of C-BgsA binding at 500 μM (C-BgsA [4]): 17%
SMILES: Nc1ncnc2c1ncn2[C@@H]1O[C@@H]2COP(=O)(O)O[C@H]3[C@@H](O)[C@H](n4cnc5c(N)ncnc54)O[C@@H]3COP(=O)(O)O[C@H]2[C@H]1O [c-di-AMP]

- EC50 (C-BgsA [5]): 270 ± 70 nM
- EC50 (C-BgsA [6]): 140 ± 10 nM
- EC50 (C-BgsA [7]): 372000 ± 114000 nM
- EC50 (C-BgsA [8]): 400 ± 50 nM
- EC50 (C-BgsA [9]): 270 ± 10 nM
- EC50 (C-BgsA [10]): 292000 ± 73000 nM
- EC50 (C-BgsA [11]): 230 ± 10 nM
SMILES: Nc1nc2c(ncn2[C@@H]2O[C@@H]3CO[P@](=O)(O)O[C@H]4[C@@H](O)[C@H](n5cnc6c(=O)[nH]c(N)nc65)O[C@@H]4CO[P@](=O)(O)O[C@H]3[C@H]2O)c(=O)[nH]1 [c-di-GMP]
